test system: restraint ulcer; test: Inhibition of restraint ulcer in rats; assay type: in vivo, Sprague-Dawley male rats; conditions: Rattus norvegicus, po, p.o. one hour before 4 h immobilization, read-out: Antiulcer ED50 p.o (A)
Procedure: 1. […] Six Sprague-Dawley male rats (100-200 g) fasted for 24 hours were used for each group.
A square flexible small-mesh wire netting was used for immobilization. After 4 hours immobilization the rats were sacrificed, their stomachs were removed, and lesions counted under a dissecting microscope.
The compounds were administered subcutaneously (s.c.) immediately before the immobilization or orally (os) one hour before.

| SMILES | ED50 |
| --- | --- |
| CCC1c2c(ncn2CC)CCN1C(=S)NC(C)C (centres unmarked) [compound 1399, 3,4-Diethyl-5-(N-isopropyl-thiocarbamoyl)-4,5,6,7-tetrahydroimidazo-[4,5-c]-pyridine] | 4 mg/kg |
| CNC(=S)NCCSCc1nc[nH]c1C [Methiamide, reference compound] | 64 mg/kg |
| CN1[C@@H]2CC[C@H]1C[C@@H](OC(=O)C(CO)c1ccccc1)C2 (some centres unmarked) [Atropine, reference compound] | 0.4 mg/kg |
| CCCNC(=S)N1CCc2[nH]cnc2C1 [compound 1361, 5-(N-n-propyl-thiocarbamoyl)-4,5,6,7-tetrahydro-imidazo-[4,5-c]-pyridine] | 25 mg/kg |
| CNC(=O)N1CCc2[nH]cnc2C1 [compound 1350, 5-(N-methyl-carbamoyl)-4,5,6,7-tetrahydro-imidazo-[4,5-c]-pyridine] | 5.6 mg/kg |
| CC(C)NC(=S)N1CCc2[nH]cnc2C1C1CCCCC1 (centres unmarked) [compound 1367, 4-Cyclohexyl-5-(N-isopropyl-thiocarbamoyl)-4,5,6,7-tetrahydro-imidazo-[4,5-c]-pyridine] | 6 mg/kg |
| CCC1c2nc[nH]c2CCN1C(=O)NC(C)C (centres unmarked) [compound 1316, 4-Ethyl-5-(N-isopropyl-carbamoyl)-4,5,6,7-tetrahydro-imidazo-[4,5-c]-pyridine] | 6.6 mg/kg |
| CCC1c2c(ncn2CC)CCN1C(=O)NC(C)C (centres unmarked) [compound 1400, 3,4-Diethyl-5-(N-isopropyl-carbamoyl)-4,5,6,7-tetrahydro-imidazo-[4,5-c]-pyridine] | 18 mg/kg |
| S=C(Nc1ccccc1)N1CCc2[nH]cnc2C1 [compound 1116, 5-(N-Phenyl-thiocarbamoyl)-4,5,6,7-tetrahydro-imidazo-[4,5-c]-pyridine] | > 34 mg/kg |
| CC(C)NC(=O)N1CCc2[nH]cnc2C1c1ccncc1 (centres unmarked) [compound 1467, 4-(4-pyridyl)-5-(N-isopropyl-carbamoyl)-4,5,6,7-tetrahydroimidazo-[4,5-c]-pyridine] | 50 mg/kg |
| CC(C)NC(=O)N1CCc2[nH]cnc2C1 [compound 1348, 5-(N-isopropyl-carbamoyl)-4,5,6,7-tetrahydro-imidazo-[4,5-c]-pyridine] | 0.55 mg/kg |

same assay, conditions: Rattus norvegicus, sc, s.c. immediately before 4 h immobilization, read-out: Antiulcer ED50 s.c.

| SMILES | ED50 |
| --- | --- |
| CCC1c2c(ncn2CC)CCN1C(=S)NC(C)C (centres unmarked) [compound 1399, 3,4-Diethyl-5-(N-isopropyl-thiocarbamoyl)-4,5,6,7-tetrahydroimidazo-[4,5-c]-pyridine] | 3.5 mg/kg |
| CNC(=S)NCCSCc1nc[nH]c1C [Methiamide, reference compound] | 14 mg/kg |
| CN1[C@@H]2CC[C@H]1C[C@@H](OC(=O)C(CO)c1ccccc1)C2 (some centres unmarked) [Atropine, reference compound] | 0.02 mg/kg |
| CCCNC(=S)N1CCc2[nH]cnc2C1 [compound 1361, 5-(N-n-propyl-thiocarbamoyl)-4,5,6,7-tetrahydro-imidazo-[4,5-c]-pyridine] | 10 mg/kg |
| CNC(=O)N1CCc2[nH]cnc2C1 [compound 1350, 5-(N-methyl-carbamoyl)-4,5,6,7-tetrahydro-imidazo-[4,5-c]-pyridine] | 6.5 mg/kg |
| CC(C)NC(=S)N1CCc2[nH]cnc2C1C1CCCCC1 (centres unmarked) [compound 1367, 4-Cyclohexyl-5-(N-isopropyl-thiocarbamoyl)-4,5,6,7-tetrahydro-imidazo-[4,5-c]-pyridine] | 3.3 mg/kg |
| CCC1c2nc[nH]c2CCN1C(=O)NC(C)C (centres unmarked) [compound 1316, 4-Ethyl-5-(N-isopropyl-carbamoyl)-4,5,6,7-tetrahydro-imidazo-[4,5-c]-pyridine] | 0.75 mg/kg |
| CCC1c2c(ncn2CC)CCN1C(=O)NC(C)C (centres unmarked) [compound 1400, 3,4-Diethyl-5-(N-isopropyl-carbamoyl)-4,5,6,7-tetrahydro-imidazo-[4,5-c]-pyridine] | 10 mg/kg |
| S=C(Nc1ccccc1)N1CCc2[nH]cnc2C1 [compound 1116, 5-(N-Phenyl-thiocarbamoyl)-4,5,6,7-tetrahydro-imidazo-[4,5-c]-pyridine] | > 10 mg/kg |
| CC(C)NC(=O)N1CCc2[nH]cnc2C1c1ccncc1 (centres unmarked) [compound 1467, 4-(4-pyridyl)-5-(N-isopropyl-carbamoyl)-4,5,6,7-tetrahydroimidazo-[4,5-c]-pyridine] | 7 mg/kg |
| CC(C)NC(=O)N1CCc2[nH]cnc2C1 [compound 1348, 5-(N-isopropyl-carbamoyl)-4,5,6,7-tetrahydro-imidazo-[4,5-c]-pyridine] | 0.1 mg/kg |

test system: gastric secretion; test: Inhibition of gastric secretion in rats (pylorus ligature technique); assay type: in vivo, Sprague-Dawley male rats; conditions: Rattus norvegicus, sc, s.c. at the time of pylorus ligature, 4 h, read-out: Antisecretory ED50 s.c.
Procedure: 2. […] Gastric antisecretory activity was evaluated in rats by the pylorus ligature technique.
Six Sprague-Dawley male rats (110-130 g) were used for each group. Twenty-four hours before the test, the rats were deprived of food but their water supply was maintained.
On the day of the operation, the pylorus was ligated under light ether anaesthesia. Four hours after the ligature, the rats were sacrificed, the stomach secretion was collected and centrifuged at 3500 r.p.m. for 10 minutes, and the volume, less sediment, was determined. The amount of the free hydrochloric acid in the gastric juice was determined by titration against 0.01N sodium hydroxide, using Topfer's Indicator.
Each compound was injected subcutaneously at the time of ligature.

| SMILES | ED50 |
| --- | --- |
| CNC(=S)NCCSCc1nc[nH]c1C [Methiamide, reference compound] | 60 mg/kg |
| CN1[C@@H]2CC[C@H]1C[C@@H](OC(=O)C(CO)c1ccccc1)C2 (some centres unmarked) [Atropine, reference compound] | 0.1 mg/kg |
| CCCNC(=S)N1CCc2[nH]cnc2C1 [compound 1361, 5-(N-n-propyl-thiocarbamoyl)-4,5,6,7-tetrahydro-imidazo-[4,5-c]-pyridine] | 50 mg/kg |
| CNC(=O)N1CCc2[nH]cnc2C1 [compound 1350, 5-(N-methyl-carbamoyl)-4,5,6,7-tetrahydro-imidazo-[4,5-c]-pyridine] | > 50 mg/kg |
| CC(C)NC(=S)N1CCc2[nH]cnc2C1C1CCCCC1 (centres unmarked) [compound 1367, 4-Cyclohexyl-5-(N-isopropyl-thiocarbamoyl)-4,5,6,7-tetrahydro-imidazo-[4,5-c]-pyridine] | > 50 mg/kg |
| CCC1c2nc[nH]c2CCN1C(=O)NC(C)C (centres unmarked) [compound 1316, 4-Ethyl-5-(N-isopropyl-carbamoyl)-4,5,6,7-tetrahydro-imidazo-[4,5-c]-pyridine] | 50 mg/kg |
| CCC1c2c(ncn2CC)CCN1C(=O)NC(C)C (centres unmarked) [compound 1400, 3,4-Diethyl-5-(N-isopropyl-carbamoyl)-4,5,6,7-tetrahydro-imidazo-[4,5-c]-pyridine] | 50 mg/kg |
| S=C(Nc1ccccc1)N1CCc2[nH]cnc2C1 [compound 1116, 5-(N-Phenyl-thiocarbamoyl)-4,5,6,7-tetrahydro-imidazo-[4,5-c]-pyridine] | 23 mg/kg |
| CC(C)NC(=O)N1CCc2[nH]cnc2C1c1ccncc1 (centres unmarked) [compound 1467, 4-(4-pyridyl)-5-(N-isopropyl-carbamoyl)-4,5,6,7-tetrahydroimidazo-[4,5-c]-pyridine] | > 50 mg/kg |
| CC(C)NC(=O)N1CCc2[nH]cnc2C1 [compound 1348, 5-(N-isopropyl-carbamoyl)-4,5,6,7-tetrahydro-imidazo-[4,5-c]-pyridine] | 18 mg/kg |

test system: chromodacryorhea induced by carbacholine; test: Anticholinergic activity in rats (antagonism against chromodacryorhea induced by carbacholine); assay type: in vivo, Sprague-Dawley male rats; conditions: Rattus norvegicus, po, read-out: anticholinergic ED50 p.o. (B)
Excerpt: 3. Anticholinergic activity in rats. […] J. Pharm. […] From 3 to 5 Sprague-Dawley male rats, 250 g body weight, have been employed for each group. […] The compound reference numbers are explained in the Examples below.

| SMILES | ED50 |
| --- | --- |
| CN1[C@@H]2CC[C@H]1C[C@@H](OC(=O)C(CO)c1ccccc1)C2 (some centres unmarked) [Atropine, reference compound] | 0.8 mg/kg |

same assay, conditions: Rattus norvegicus, po; rats; p.o.; carbacholine-induced chromodacryorhea; read-out: anticholinergic ED50 p.o. (B)

| SMILES | ED50 |
| --- | --- |
| CCC1c2c(ncn2CC)CCN1C(=S)NC(C)C (centres unmarked) [compound 1399, 3,4-Diethyl-5-(N-isopropyl-thiocarbamoyl)-4,5,6,7-tetrahydroimidazo-[4,5-c]-pyridine] | > 100 mg/kg |
| CNC(=S)NCCSCc1nc[nH]c1C [Methiamide, reference compound] | 85 mg/kg |
| CNC(=O)N1CCc2[nH]cnc2C1 [compound 1350, 5-(N-methyl-carbamoyl)-4,5,6,7-tetrahydro-imidazo-[4,5-c]-pyridine] | > 100 mg/kg |
| CC(C)NC(=S)N1CCc2[nH]cnc2C1C1CCCCC1 (centres unmarked) [compound 1367, 4-Cyclohexyl-5-(N-isopropyl-thiocarbamoyl)-4,5,6,7-tetrahydro-imidazo-[4,5-c]-pyridine] | > 100 mg/kg |
| CCC1c2nc[nH]c2CCN1C(=O)NC(C)C (centres unmarked) [compound 1316, 4-Ethyl-5-(N-isopropyl-carbamoyl)-4,5,6,7-tetrahydro-imidazo-[4,5-c]-pyridine] | 70 mg/kg |
| CCC1c2c(ncn2CC)CCN1C(=O)NC(C)C (centres unmarked) [compound 1400, 3,4-Diethyl-5-(N-isopropyl-carbamoyl)-4,5,6,7-tetrahydro-imidazo-[4,5-c]-pyridine] | > 100 mg/kg |
| CC(C)NC(=O)N1CCc2[nH]cnc2C1 [compound 1348, 5-(N-isopropyl-carbamoyl)-4,5,6,7-tetrahydro-imidazo-[4,5-c]-pyridine] | 7.8 mg/kg |

same assay, conditions: rats; p.o.; B = anticholinergic ED50, A = antiulcer ED50

| SMILES | B/A (ratio of ED50's for oral anti-cholinergic and anti-ulcer activities) |
| --- | --- |
| CCC1c2c(ncn2CC)CCN1C(=S)NC(C)C (centres unmarked) [compound 1399, 3,4-Diethyl-5-(N-isopropyl-thiocarbamoyl)-4,5,6,7-tetrahydroimidazo-[4,5-c]-pyridine] | > 25 |
| CNC(=S)NCCSCc1nc[nH]c1C [Methiamide, reference compound] | 1.3 |
| CN1[C@@H]2CC[C@H]1C[C@@H](OC(=O)C(CO)c1ccccc1)C2 (some centres unmarked) [Atropine, reference compound] | 2 |
| CNC(=O)N1CCc2[nH]cnc2C1 [compound 1350, 5-(N-methyl-carbamoyl)-4,5,6,7-tetrahydro-imidazo-[4,5-c]-pyridine] | > 18 |
| CC(C)NC(=S)N1CCc2[nH]cnc2C1C1CCCCC1 (centres unmarked) [compound 1367, 4-Cyclohexyl-5-(N-isopropyl-thiocarbamoyl)-4,5,6,7-tetrahydro-imidazo-[4,5-c]-pyridine] | > 18 |
| CCC1c2nc[nH]c2CCN1C(=O)NC(C)C (centres unmarked) [compound 1316, 4-Ethyl-5-(N-isopropyl-carbamoyl)-4,5,6,7-tetrahydro-imidazo-[4,5-c]-pyridine] | 10 |
| CCC1c2c(ncn2CC)CCN1C(=O)NC(C)C (centres unmarked) [compound 1400, 3,4-Diethyl-5-(N-isopropyl-carbamoyl)-4,5,6,7-tetrahydro-imidazo-[4,5-c]-pyridine] | > 5.5 |
| CC(C)NC(=O)N1CCc2[nH]cnc2C1 [compound 1348, 5-(N-isopropyl-carbamoyl)-4,5,6,7-tetrahydro-imidazo-[4,5-c]-pyridine] | 14 |

same assay, conditions: rats; p.o.; B = anticholinergic ED50, A = antiulcer ED50; listed as atropine

| SMILES | B/A (ratio of ED50's for oral anti-cholinergic and anti-ulcer activities) |
| --- | --- |
| CN1[C@@H]2CC[C@H]1C[C@@H](OC(=O)C(CO)c1ccccc1)C2 (some centres unmarked) [Atropine, reference compound] | about 2 |

same assay, conditions: rats; p.o.; B = anticholinergic ED50, A = antiulcer ED50; listed as methiamide

| SMILES | B/A (ratio of ED50's for oral anti-cholinergic and anti-ulcer activities) |
| --- | --- |
| CNC(=S)NCCSCc1nc[nH]c1C [Methiamide, reference compound] | about 2 |
